Source: PubChem BioAssay AID330 (DTP/NCI, 2004)
Where “and” joins values, the source holds several entries; their conditions need not be identical. Identical values can stand only once. Inconclusive results and toxic doses are left out.

Tested on: P388 leukemia ip, CD2F1 mice, survival T/C
Test: NCI In Vivo Anticancer Drug Screen. Data for tumor model P388 Leukemia (intraperitoneal) in CD2F1 (CDF1) mice
Conditions: endpoint: median survival time, higher = longer survival
How it was run: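 Mice carrying the transplanted tumor received test compound or vehicle. Survival was recorded in each group, and the value is the treated-group measurement divided by that of the vehicle-treated control group.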

[1] = dose: 60.0 mg/kg/injection, schedule: Q01DX005 (ip), vehicle: Klucel (hydroxypropylcellulose) (HPC)
[2] = dose: 120.0 mg/kg/injection, schedule: Q01DX005 (ip), vehicle: Klucel (hydroxypropylcellulose) (HPC)
[3] = dose: 240.0 mg/kg/injection, schedule: Q01DX005 (ip), vehicle: Klucel (hydroxypropylcellulose) (HPC)

N#Cc1ccc(NN=NCCCl)cc1
T/C (dose: 12.5 mg/kg/injection, schedule: Q01DX009 (ip), vehicle: distilled water + Tween-80): 114 % of control
T/C (dose: 12.5 mg/kg/injection, schedule: Q01DX009 (ip), vehicle: distilled water + alcohol): 95 % of control
T/C (dose: 25.0 mg/kg/injection, schedule: Q01DX009 (ip), vehicle: distilled water + alcohol): 91 % of control
T/C (dose: 50.0 mg/kg/injection, schedule: Q01DX009 (ip), vehicle: distilled water + alcohol): 97 % of control
T/C (dose: 100.0 mg/kg/injection, schedule: Q01DX009 (ip), vehicle: distilled water + Tween-80): 87 % of control
T/C (dose: 100.0 mg/kg/injection, schedule: Q01DX009 (ip), vehicle: distilled water + alcohol): 88 % of control

CN(C)CCOc1ccccc1Cc1ccccc1
T/C (dose: 50.0 mg/kg/injection, schedule: Q01DX009 (ip), vehicle: saline with Tween-80): 95 % of control
T/C (dose: 100.0 mg/kg/injection, schedule: Q01DX009 (ip), vehicle: saline with Tween-80): 100 % of control
T/C (dose: 200.0 mg/kg/injection, schedule: Q01DX009 (ip), vehicle: saline with Tween-80): 118 % of control

O=c1[nH]nc(-c2ccc3c(c2)OCO3)o1
T/C (dose: 32.5 mg/kg/injection, schedule: Q01DX009 (ip), vehicle: Klucel (hydroxypropylcellulose) (HPC)): 105 % of control
T/C (dose: 65.0 mg/kg/injection, schedule: Q01DX009 (ip), vehicle: Klucel (hydroxypropylcellulose) (HPC)): 95 % of control
T/C (dose: 130.0 mg/kg/injection, schedule: Q01DX009 (ip), vehicle: Klucel (hydroxypropylcellulose) (HPC)): 95 % of control

FC(F)(F)c1ccc(Cl)c(N=Cc2ccc(C=Nc3cc(C(F)(F)F)ccc3Cl)cc2)c1
T/C (dose: 50.0 mg/kg/injection, schedule: Q01DX009 (ip), vehicle: Klucel (hydroxypropylcellulose) (HPC)): 91 % of control
T/C (dose: 100.0 mg/kg/injection, schedule: Q01DX009 (ip), vehicle: Klucel (hydroxypropylcellulose) (HPC)): 98 % of control

CC(C)N(C(=O)c1ncccc1C(=O)c1ccccn1)C(C)C
T/C (dose: 50.0 mg/kg/injection, schedule: Q01DX005 (ip), vehicle: saline with Tween-80): 105 % of control
T/C (dose: 100.0 mg/kg/injection, schedule: Q01DX005 (ip), vehicle: saline with Tween-80): 94 % of control
T/C (dose: 200.0 mg/kg/injection, schedule: Q01DX005 (ip), vehicle: saline with Tween-80): 94 % of control

C/C1=C\C(=O)OCC23CCC4(C)OC4C2OC2CC(OC(=O)/C=C/C=C/C(C(C)O)OCC1O)C3(C)C21CO1 (centres undefined)
T/C (dose: 1.25 mg/kg/injection, schedule: Q01DX005 (ip), vehicle: saline + alcohol): 121 % of control and 123 % of control
T/C (dose: 5.0 mg/kg/injection, schedule: Q01DX005 (ip), vehicle: saline + alcohol): 124 % of control
T/C (dose: 10.0 mg/kg/injection, schedule: Q01DX005 (ip), vehicle: saline + alcohol): 150 % of control
T/C (dose: 20.0 mg/kg/injection, schedule: Q01DX005 (ip), vehicle: saline + alcohol): 159 % of control

CCC(c1ccc(OC)cc1)C(NCC(=O)N/N=C/c1ccccc1[N+](=O)[O-])c1ccc(OC)cc1 (centres undefined)
T/C (dose: 3.12 mg/kg/injection, schedule: Q01DX001 (ip), vehicle: saline with Tween-80): 94 % of control
T/C (dose: 6.25 mg/kg/injection, schedule: Q01DX001 (ip), vehicle: saline with Tween-80): 88 % of control
T/C (dose: 12.5 mg/kg/injection, schedule: Q01DX001 (ip), vehicle: saline with Tween-80): 88 % of control
T/C (dose: 400.0 mg/kg/injection, schedule: Q01DX001 (ip), vehicle: saline with Tween-80): 96 % of control

C1CNC(SC2(SC3=NCCN3)SC3(NCCN3)S2)=N1
T/C (dose: 50.75 mg/kg/injection, schedule: Q01DX001 (ip), vehicle: saline): 104 % of control
T/C (dose: 101.5 mg/kg/injection, schedule: Q01DX001 (ip), vehicle: saline): 99 % of control
T/C (dose: 203.0 mg/kg/injection, schedule: Q01DX001 (ip), vehicle: saline): 101 % of control

O=C1C=CC2(C=C1)CCCCC2
T/C (dose: 50.0 mg/kg/injection, schedule: Q01DX001 (ip), vehicle: Klucel (hydroxypropylcellulose) (HPC)): 91 % of control
T/C (dose: 100.0 mg/kg/injection, schedule: Q01DX001 (ip), vehicle: Klucel (hydroxypropylcellulose) (HPC)): 101 % of control

COc1ccc(/C(O)=C/c2nc3ccc(Cl)cc3[nH]c2=O)cc1
T/C [1]: 101 % of control
T/C [2]: 99 % of control
T/C [3]: 91 % of control

COc1cccc2c(=O)cc(-c3ccccc3)sc12
T/C [1]: 98 % of control
T/C [2]: 97 % of control
T/C [3]: 90 % of control

C=C1CC2(CC3CC2C2CCCC32)OC1=O (centres undefined)
T/C (dose: 100.0 mg/kg/injection, schedule: Q04DX002 (ip), vehicle: saline): 100 % of control
T/C (dose: 200.0 mg/kg/injection, schedule: Q04DX002 (ip), vehicle: saline): 94 % of control
T/C (dose: 400.0 mg/kg/injection, schedule: Q04DX002 (ip), vehicle: saline): 98 % of control
